Measurements as given in US20210253562A1, “ACYLSUFONAMIDE COMPOUNDS USEFUL AS EP3 RECEPTOR ANTAGONISTS” (Janssen Pharmaceutica NV, priority 2018, published 2021).
“And” between values parts separate entries of the source, which are not always exact repeats. Equal values may be shown once. Read-outs that look alike come from different tables or passages of the source.

Target: T1, EP3 membrane (EP3 receptor) (Homo sapiens, UniProt P43115)
T1 construct: purchased Millipore HTS092M
T1 sequence (P43115 1-390): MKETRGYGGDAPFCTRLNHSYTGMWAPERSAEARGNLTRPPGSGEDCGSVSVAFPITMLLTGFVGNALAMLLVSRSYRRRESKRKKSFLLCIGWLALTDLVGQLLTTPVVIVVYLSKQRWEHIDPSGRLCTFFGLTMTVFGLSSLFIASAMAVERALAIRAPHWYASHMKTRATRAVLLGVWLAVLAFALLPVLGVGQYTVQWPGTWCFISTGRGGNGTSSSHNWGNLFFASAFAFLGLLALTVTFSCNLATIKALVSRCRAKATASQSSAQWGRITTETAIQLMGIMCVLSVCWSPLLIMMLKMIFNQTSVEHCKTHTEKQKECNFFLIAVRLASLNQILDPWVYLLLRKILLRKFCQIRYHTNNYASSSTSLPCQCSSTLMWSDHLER
Assay: [3H]-PGE2 binding; EP3 competition binding (SPA)
Method: Biological Example 1: [3H]-PGE2 Binding
EP3 competition binding was determined using the following materials and experimental conditions: • Beads=Perkin Elmer RPNQ0001 • [3H]PGE2=Perkin Elmer NET428025UC • 384-well plate=Perkin Elmer 6007290 • EP3 membrane=Millipore HTS092M • Membrane concentration=2 μg/well • Beads concentration=0.25 mg/well • [3H]-PGE2=2 nM; DMSO—0.1% • Binding buffer=50 mM Tris, 10 mM MgCl2, 1 mM EDTA, PH 7.4.
The reaction system was prepared by mixing 5 μl of unlabeled compound; 5 μl of diluted [3H]-PGE2; 5 μl of diluted membrane; and 15 μl of SPA beads dissolved in binding buffer (adding in the following sequence: Unlabeled compound, [3H]-PGE2, Membrane and Beads).
The binding buffer was removed from refrigeration (@ 4° C.) and allowed to warm to room temperature. Test compound (@ stock concentration of […] in DMSO) was serial dilutes (1:3) with 100% DMSO using Echo plate. Diluted test compound (30 nL) was dispensed to the 384-well assay plate (using Echo 550 Labcyte System). To each well was then added assay buffer (5 μl) and each well was spun. Beads were weighed out, dissolved in assay buffer to a concentration of 0.25 mg/15 μl. Original membrane was diluted with assay buffer to a concentration of 2 μg/5 μl. Original [3H]-PGE2 with diluted with assay buffer to a concentration of 12 nM. To each test well were then added diluted [3H]-PGE2 (5 μl), diluted membrane (5 μl), and dissolved beads (15 μl). The plate was equilibrated at room temperature on a plate shaker for 2 hours and then read with a TOPCOUNT scintillation plate reader. Results were analyzed using a Prism program with non-linear regression, one-site fit for Ki.

| SMILES | Ki | Ki (unit nM) |
| --- | --- | --- |
| Cc1nc(C)c(S(=O)(=O)NC(=O)NC/C(F)=C2\COCc3cnn(Cc4ccc(Cl)cc4Cl)c32)s1 [Compound #160, (E)-N-((2-(1-(2,4-dichlorobenzyl)-1,4-dihydropyrano[4,3-c]pyrazol-7(6H)-ylidene)-2-fluoroethyl)carbamoyl)-2,4-dimethylthiazole-5-sulfonamide] | 217 nM | – |
| COc1ccc(S(=O)(=O)NC(=O)NC/C(F)=C2\COCc3cnn(Cc4ccc(Cl)cc4Cl)c32)cc1F [Compound #161, (E)-N-((2-(1-(2,4-dichlorobenzyl)-1,4-dihydropyrano[4,3-c]pyrazol-7(6H)-ylidene)-2-fluoroethyl)carbamoyl)-3-fluoro-4-methoxybenzenesulfonamide] | 57 nM | – |
| O=C(NC/C=C1\CCCc2cnn(Cc3ncc(-c4ccccc4)cn3)c21)NS(=O)(=O)c1cc(Cl)c(Cl)s1 [Compound #163, (E)-4,5-dichloro-N-((2-(1-((5-phenylpyrimidin-2-yl)methyl)-1,4,5,6-tetrahydro-7H-indazol-7-ylidene)ethyl)carbamoyl)thiophene-2-sulfonamide] | > 10000 nM | – |
| O=C(NC/C(F)=C1\CCCn2nnc(-c3ccc(C(F)(F)F)cc3)c21)NS(=O)(=O)c1cc(Cl)c(Cl)s1 [Compound #164, (Z)-4,5-dichloro-N-((2-fluoro-2-(3-(4-(trifluoromethyl)phenyl)-6,7-dihydro-[1,2,3]triazolo[1,5-a]pyridin-4(5H)-ylidene)ethyl)carbamoyl)thiophene-2-sulfonamide] | 3200 nM | – |
| COc1ccc(S(=O)(=O)NC(=O)NC/C(F)=C2\COCc3cnn(Cc4ccc(Cl)cc4Cl)c32)cc1Cl [Compound #165, (E)-3-chloro-N-((2-(1-(2,4-dichlorobenzyl)-1,4-dihydropyrano[4,3-c]pyrazol-7(6H)-ylidene)-2-fluoroethyl)carbamoyl)-4-methoxybenzenesulfonamide] | 10 nM | – |
| Cc1cc(S(=O)(=O)NC(=O)NC/C(F)=C2\COCc3cnn(Cc4ccc(Cl)cc4Cl)c32)sc1Cl [Compound #166, (E)-5-chloro-N-((2-(1-(2,4-dichlorobenzyl)-1,4-dihydropyrano[4,3-c]pyrazol-7(6H)-ylidene)-2-fluoroethyl)carbamoyl)-4-methylthiophene-2-sulfonamide] | 6 nM and 7 nM | – |
| Cc1cc(Cl)ccc1Cc1nnn2c1/C(=C(\F)CNC(=O)NS(=O)(=O)c1cc(Cl)c(Cl)s1)CCC2 [Compound #167, (Z)-4,5-dichloro-N-((2-(3-(4-chloro-2-methylbenzyl)-6,7-dihydro-[1,2,3]triazolo[1,5-a]pyridin-4(5H)-ylidene)-2-fluoroethyl)carbamoyl)thiophene-2-sulfonamide] | 7 nM | – |
| Cn1nccc1S(=O)(=O)NC(=O)NC/C(F)=C1\CCCc2cnn(Cc3ccc(Cl)cc3Cl)c21 [Compound #168, (Z)—N-((2-(1-(2,4-dichlorobenzyl)-1,4,5,6-tetrahydro-7H-indazol-7-ylidene)-2-fluoroethyl)carbamoyl)-1-methyl-1H-pyrazole-5-sulfonamide] | 232 nM | – |
| Cc1c(S(=O)(=O)NC(=O)NC/C(F)=C2\CCCc3cnn(Cc4ccc(Cl)cc4Cl)c32)cnn1C [Compound #169, (Z)—N-((2-(1-(2,4-dichlorobenzyl)-1,4,5,6-tetrahydro-7H-indazol-7-ylidene)-2-fluoroethyl)carbamoyl)-1,5-dimethyl-1H-pyrazole-4-sulfonamide] | 83 nM | – |
| CC(C)n1cc(S(=O)(=O)NC(=O)NC/C(F)=C2\CCCc3cnn(Cc4ccc(Cl)cc4Cl)c32)cn1 [Compound #170, (Z)—N-((2-(1-(2,4-dichlorobenzyl)-1,4,5,6-tetrahydro-7H-indazol-7-ylidene)-2-fluoroethyl)carbamoyl)-1-isopropyl-1H-pyrazole-4-sulfonamide] | 612 nM | – |
| Cn1nccc1S(=O)(=O)NC(=O)NC/C=C1\CCCc2cnn(Cc3ccc(Cl)cc3Cl)c21 [Compound #171, (E)-N-((2-(1-(2,4-dichlorobenzyl)-1,4,5,6-tetrahydro-7H-indazol-7-ylidene)ethyl)carbamoyl)-1-methyl-1H-pyrazole-5-sulfonamide] | 18 nM | – |
| Cc1c(S(=O)(=O)NC(=O)NC/C=C2\CCCc3cnn(Cc4ccc(Cl)cc4Cl)c32)cnn1C [Compound #172, (E)-N-((2-(1-(2,4-dichlorobenzyl)-1,4,5,6-tetrahydro-7H-indazol-7-ylidene)ethyl)carbamoyl)-1,5-dimethyl-1H-pyrazole-4-sulfonamide] | 4 nM | – |
| CC(C)n1cc(S(=O)(=O)NC(=O)NC/C=C2\CCCc3cnn(Cc4ccc(Cl)cc4Cl)c32)cn1 [Compound #173, (E)-N-((2-(1-(2,4-dichlorobenzyl)-1,4,5,6-tetrahydro-7H-indazol-7-ylidene)ethyl)carbamoyl)-1-isopropyl-1H-pyrazole-4-sulfonamide] | 59 nM | – |
| COc1ccc(S(=O)(=O)NC(=O)NC/C(F)=C2\CCCc3cnn(Cc4ccc(Cl)cc4Cl)c32)cc1OC [Compound #174, (Z)—N-((2-(1-(2,4-dichlorobenzyl)-1,4,5,6-tetrahydro-7H-indazol-7-ylidene)-2-fluoroethyl)carbamoyl)-3,4-dimethoxybenzenesulfonamide] | 149 nM | – |
| COc1cc(S(=O)(=O)NC(=O)NC/C(F)=C2\CCCc3cnn(Cc4ccc(Cl)cc4Cl)c32)ccc1Cl [Compound #175, (Z)-4-Chloro-N-((2-(1-(2,4-dichlorobenzyl)-1,4,5,6-tetrahydro-7H-indazol-7-ylidene)-2-fluoroethyl)carbamoyl)-3-methoxybenzenesulfonamide] | 16 nM | – |
| O=C(NC/C=C1\CCCc2cnn(Cc3ccc(Cl)cc3Cl)c21)NS(=O)(=O)c1ccc2[nH]c(=O)oc2c1 [Compound #176, (E)-N-((2-(1-(2,4-dichlorobenzyl)-1,4,5,6-tetrahydro-7H-indazol-7-ylidene)ethyl)carbamoyl)-2-oxo-2,3-dihydrobenzo[d]oxazole-6-sulfonamide] | 1 nM | – |
| COc1nc2ccc(S(=O)(=O)NC(=O)NC/C=C3\CCCc4cnn(Cc5ccc(Cl)cc5Cl)c43)cc2o1 [Compound #177, (E)-N-((2-(1-(2,4-dichlorobenzyl)-1,4,5,6-tetrahydro-7H-indazol-7-ylidene)ethyl)carbamoyl)-2-methoxybenzo[d]oxazole-6-sulfonamide] | 1 nM | – |
| COc1nc2ccc(S(=O)(=O)NC(=O)NC/C(F)=C3\CCCc4cnn(Cc5ccc(Cl)cc5Cl)c43)cc2o1 [Compound #178, (Z)—N-((2-(1-(2,4-dichlorobenzyl)-1,4,5,6-tetrahydro-7H-indazol-7-ylidene)-2-fluoroethyl)carbamoyl)-2-methoxybenzo[d]oxazole-6-sulfonamide] | 6 nM | – |
| COc1ccc(S(=O)(=O)NC(=O)NC/C(F)=C2\CCCc3[nH]nc(Cc4ccc(Cl)cc4Cl)c32)cc1Cl [Compound #179, (Z)-3-chloro-N-((2-(3-(2,4-dichlorobenzyl)-1,5,6,7-tetrahydro-4H-indazol-4-ylidene)-2-fluoroethyl)carbamoyl)-4-methoxybenzenesulfonamide] | – | 0.4 nM |
| Cc1nn(C)cc1S(=O)(=O)NC(=O)NC/C(F)=C1\CCCc2cnn(Cc3ccc(Cl)cc3Cl)c21 [Compound #180, (Z)—N-((2-(1-(2,4-dichlorobenzyl)-1,4,5,6-tetrahydro-7H-indazol-7-ylidene)-2-fluoroethyl)carbamoyl)-1,3-dimethyl-1H-pyrazole-4-sulfonamide] | 164 nM | – |
| Cc1cc(S(=O)(=O)NC(=O)NC/C(F)=C2\CCCc3onc(Cc4ccc(Cl)cc4Cl)c32)sc1Cl [Compound #181, (Z)-5-chloro-N-((2-(3-(2,4-dichlorobenzyl)-6,7-dihydrobenzo[d]isoxazol-4(5H)-ylidene)-2-fluoroethyl)carbamoyl)-4-methylthiophene-2-sulfonamide] | 6 nM | – |
| CC(=O)Nc1nc(C)c(S(=O)(=O)NC(=O)NC/C(F)=C2\CCCc3cnn(Cc4ccc(Cl)cc4Cl)c32)s1 [Compound #182, (Z)—N-(5-(N-((2-(1-(2,4-dichlorobenzyl)-1,4,5,6-tetrahydro-7H-indazol-7-ylidene)-2-fluoroethyl)carbamoyl)sulfamoyl)-4-methylthiazol-2-yl)acetamide] | 153 nM | – |
| Cc1nc2cc(S(=O)(=O)NC(=O)NC/C(F)=C3\CCCc4cnn(Cc5ccc(Cl)cc5Cl)c43)ccc2o1 [Compound #183, (Z)—N-((2-(1-(2,4-dichlorobenzyl)-1,4,5,6-tetrahydro-7H-indazol-7-ylidene)-2-fluoroethyl)carbamoyl)-2-methylbenzo[d]oxazole-5-sulfonamide] | 218 nM | – |
